Reference: patent US10758541B2, “Formulations of milciclib and therapeutic combinations of the same for use in the treatment of cancer” (Tiziana Life Sciences PLC, priority 2017, dated 2020)

Experiments:
[1] = test system: MHCC97H human liver cells; experiment: Orthotopic tumor induction in athymic nude mice; format: in vivo; settings: oral, once daily day 12 to 47; milciclib 30 mg/kg/day, sorafenib 20 mg/kg/day; vs vehicle
Experimental: Mouse experiments were performed in accordance with the guidelines approved by the Institutional Animal Care and use committee of Washington Biotechnology Inc (Baltimore, Md.) where the studies were conducted. (FIG. 66) Test agents were dissolved in chremophor/ethanol (1:1) to make a 5× stock solution and diluted in water when used. MHCC97H human liver cells (5×106) in PBS were mixed with 20% Matrigel and then inoculated orthotopically into the right flank of female Balb/c nude mice. Seven days after cell inoculation, the mice were randomly allocated to either the treatment group (n=12) or the control group (n=12) based on the levels of AFP. The daily animal inspection was conducted for general appearance and tumor growth. Milciclib (30 mg/Kg), sorafenib (20 mg/Kg), milciclib+sorafenib or the corresponding vehicle was given orally to individual mice once daily from day 12 until day 47. After completion of the treatment at day 48, animals were euthanized and blood, liver tissues and tumor were collected for gene expression and mechanistic assays. Liver tumors developed 100% of animals challenged with orthotopic MHCC97H injection.

[2] = test system: HepG2.2.15 cells; experiment: IC50 values by cell proliferation assay (WST-1); format: cell-based; settings: Homo sapiens, HepG2.2.15; individual inhibitor, 72 hours, WST-1; read-out: HepG2.2.15 IC50
Excerpt: See Shailubhai, K et al. “Atiprimod is an inhibitor of cancer cell proliferation and angiogenesis.” J Exp Ther Oncol. 2004; 4: 267-279; and Choudhari et al. “Deactivation of Akt and STAT3 signaling promotes apoptosis, inhibits proliferation, and enhances the sensitivity of hepatocellular carcinoma cells to an anticancer agent, atiprimod” Molecular Cancer Therapeutics. 2007; 6: 112-121. References are incorporated herein in their entireties.
HepG2.2.15 cells are derived from the human hepatoblastoma cell line HepG2.
Cells (MHCC97H, MHCC97L, and HepG2.2.15) were cultured for 24 hours in 2% FBS and then were trypsinized, resuspended in 2% FBS and seeded in a rat collagen coated 96-well plate at a density of 10,000 cells/100 μl/well, a day before the experiment and cultured at 37° C. in 5% CO2. The cells were treated the next day with milciclib, sorafenib, regorafenib, sunitinib, and lenvatinib, individually or in combination in DMEM/F12+2% FBS+for 72 hours prior to the addition of WST-1 reagent. About 100 μL media was added to control well. After cells had been cultured for 72 hours with different drug concentrations, cells were washed 3 times with sterile 1× Phosphate buffered saline (PBS). To determine cell proliferation by the colorimetric test, 10 μL of WST-1 reagent (Sigma Aldrich, St Louis, Mo.) was added in 100 μL cell culture media and incubated for 2 hours in 5% CO2 at 37° C. At the end of incubation period, the plate was placed on a plate shaker for 1 minute and was monitored using a spectrophotometer at an optical density of 450 nm with a reference wavelength of 600 nm using Tecan F200 and iControl software. IC50 values were determined using GraphPad Prism (GraphPad Software, La Jolla, Calif.). Each experiment was performed in duplicate and repeated 2 times.

[3] = test system: alpha-fetoprotein (AFP); experiment: Serum AFP in orthotopic HCC mouse model; format: in vivo, mice; settings: milciclib 30 mg/kg, sorafenib 20 mg/kg, oral, vs vehicle
Experimental: MHCC97H cells were seeded at a density of 500,000 cells/2 mL/well on a 6 well culture plate and incubated overnight at 37° C. in a humidified CO2 incubator. Cells were then treated with 1.3 μM milciclib or vehicle in DMEM/F12+2% FBS for 72 hours. Subsequently, cells were lysed in RIPA buffer, the supernatant was collected and used to perform ELISA assay as per the manufacturer's instructions. In orthotopic HCC mouse model, levels of serum marker alpha-fetoprotein (AFP) were determined on day 0, 6, 12, 18, 24, 30, 36, 42 and 48 using High Range AFP kit as per manufacturer's instructions.
Mouse experiments were performed in accordance with the guidelines approved by the Institutional Animal Care and use committee of Washington Biotechnology Inc (Baltimore, Md.) where the studies were conducted. (FIG. 66) Test agents were dissolved in chremophor/ethanol (1:1) to make a 5× stock solution and diluted in water when used. MHCC97H human liver cells (5×106) in PBS were mixed with 20% Matrigel and then inoculated orthotopically into the right flank of female Balb/c nude mice. Seven days after cell inoculation, the mice were randomly allocated to either the treatment group (n=12) or the control group (n=12) based on the levels of AFP. The daily animal inspection was conducted for general appearance and tumor growth. […]

[4] = test system: miR-221 and miR-222; experiment: miRNA isolation and expression analysis of tumor tissues; format: in vivo; settings: tumor tissues from orally treated mice, vs vehicle
Experimental: miRNA from athymic nude mice following treatment with vehicle, milciclib, sorafenib, or milciclib+sorafenib was isolated from Total RNA using the TaqMan Advanced miRNA cDNA Synthesis Kit (Thermo Fisher Scientific, Rockford, Ill.) according to the manufacturer's instructions. miRNA-221 and miR-222 quantifications were performed in duplicates using TaqMan Advanced miRNA Assay (Thermo Fisher Scientific, Rockford, Ill.) with a sample dilution of 1:10. The PCR mixture was incubated at 95° C. for 20 seconds, followed by 40 cycles of 95° C. for 3 seconds and 60° C. for 30 seconds. Results were normalized to hsa-miR-192-5p as reference miRNA and the relative gene expression calculated as 2−ΔCT was expressed as fold increase over control samples.
Tumor tissues from mice treated with vehicle, sorafenib, milciclib, milciclib+sorafenib and normal liver tissues from naïve untreated mice were collected and levels of miR-221 and miR-222 were determined. The levels of both of miR-221 and miR-222 were elevated in tumors from vehicle treated mice.

[5] = test system: p27, p21, p57, p53, cyclin D1, cyclin E2, MKI67, c-Myc, CdC6; experiment: Quantitative real-time PCR gene expression in orthotopic HCC tumors; format: in vivo; settings: orthotopic HCC mice
Experimental: Total RNA was extracted using the RNeasy Mini kit according to the manufacturer's instructions (Qiagen, Germantown, Md.). RNA was quantified using Nanodrop Lite (Thermo Scientific, Wilmington, Del.). Complementary DNA (cDNA) synthesis was performed by reverse transcription of total RNA using the High Capacity cDNA Reverse Transcription Kit (Thermo Fisher Scientific, Rockford, Ill.). Real-time quantitative PCR was employed using the LightCycler 480 Instrument II (Roche Diagnostics Corporation, Indianapolis, Ind.) using TaqMan Fast Advanced Master Mix and TaqMan Gene Expression probes for human p27, cyclin E2, cyclin A2, CdC6, MKI67, cyclin D1, p21, p57, c-Myc and p53 (Thermo Fisher Scientific). The expression of target genes was normalized to the housekeeping gene GAPDH in each sample. All samples were run in duplicate and the relative gene expression calculated as 2−ΔCT was expressed as fold increase over control samples.

## CNC(=O)c1nn(C)c2c1C(C)(C)Cc1cnc(Nc3ccc(N4CCN(C)CC4)cc3)nc1-2 [MILCICLIB, N,1,4,4-tetramethyl-8-((4-(4-methylpiperazin-1-yl)phenyl)amino)-4,5-dihydro-1H-pyrazolo[4,3-h]quinazoline-3-carboxamide]
[1]
  reducing tumor growth: 20%
[2]
  IC50: 1.16 µM
[3]
  serum AFP levels: Significantly lower
[4]
  expression of miR-221 and miR-222: significantly reduced
[5]; oral administration
  expression of cell proliferation genes such as MKI67, cdc6, c-Myc: downregulated
  expression of cyclins such as cyclin E2 and cyclin D1: downregulated
[5]; oral treatment
  expression of tumor suppressors such as p27, p21, p53 and p57: upregulated
